≈ marks a conversion by molar mass, not a printed value. Like-named read-outs stand apart in the source and are kept apart here. Non-standard residues stand in square brackets, D forms with d. Residues, ends and D or L forms follow the SMILES beside them. No end group written: not given here.
Columns and labels:
indicator strains = details: indicator strain not given; cited from earlier work
[1] = cited from earlier work
E. coli LMG15862 = assay: microbe, parasite or virus in culture; type: cell-based, Escherichia coli; details: for MICb (GNP concentration when used alone): L-form GNP, Table 6
Experimental: (§1) Escherichia coli, Klebsiella pneumoniae, Pseudomonas aeruginosa, Acinetobacter baumannii, Enterobacter aerogenes were grown in Luria-Bertani (LB) broth shaken (200 rpm) or on LB agar at 37° C. […] MICs tests were performed in duplicate by a liquid growth inhibition microdilution assays in sterilized polypropylene microtiter plates according to Wiegand and […] [27]. […] The suspension was diluted in a ratio of 1:100 using Mueller Hinton Broth (MHB) and the final inoculum is 5*10^5 CFU/mL. […] The antimicrobials were diluted serially by 1/2 one by one and 50 uL diluted bacterial suspension were added to each well to make the final volume to be 100 uL. Growth control was accomplished by remove 10 uL from well 11 and dilute 1000 times to plate 1/10 suspension on the solid medium. […] The number of colonies on the control agar plate should be around 50 to ensure the concentration of the inoculum and the effectiveness of the experiment. The lowest concentration of the antimicrobials that inhibits visible growth of the indicator is identified as MIC.

K. pneumoniae LMG20218 = assay: microbe, parasite or virus in culture; type: cell-based, Klebsiella pneumoniae
Experimental: as §1

P. aeruginosa LMG 6395 = assay: microbe, parasite or virus in culture; type: cell-based, Pseudomonas aeruginosa
Experimental: as §1

A. baumannii LMG01041 = assay: microbe, parasite or virus in culture; type: cell-based, Acinetobacter baumannii
Experimental: as §1

E. aerogenes LMG 02094 = assay: microbe, parasite or virus in culture; type: cell-based, Enterobacter aerogenes
Experimental: as §1

Gram-negative pathogens = type: cell-based; details: L-form GNPs alone; five Gram-negative pathogens
Experimental: as §1

## CN[C@H](CC(C)C)C(=O)N[C@H]1C(=O)N[C@@H](CC(N)=O)C(=O)N[C@H]2C(=O)N[C@H]3C(=O)N[C@H](C(=O)N[C@H](C(=O)O)c4cc(O)cc(O)c4-c4cc3ccc4O)[C@H](O)c3ccc(c(Cl)c3)Oc3cc2cc(c3O[C@@H]2O[C@H](CO)[C@@H](O)[C@H](O)[C@H]2O[C@H]2C[C@](C)(NCc3ccc(-c4ccc(Cl)cc4)cc3)[C@H](O)[C@H](C)O2)Oc2ccc(cc2Cl)[C@H]1O [Compound 1, Chlorobiphenyl Vancomycin]
Indicator strains
  Biological activity (relative to the wild type): Increased (Increased activity, >120% compared with the activity of vancomycin)

## K12S (ITSISLCTPGCSTGALMGCNMKTATCHCSIHVSK; cysteine pairing not given here; also: lantibiotic nisin-A; UniProt P13068 24-57, looked up, variant K12S)
[1]; gene nisA (nisin A mutants)
  Biological activity (relative to the wild type): Increased (Increased activity, >120% compared to the activity of wild type nisin A/Z)

## K22S (ITSISLCTPGCKTGALMGCNMSTATCHCSIHVSK; cysteine pairing not given here; also: lantibiotic nisin-A; UniProt P13068 24-57, looked up, variant K22S)
[1]; gene nisA (nisin A mutants)
  Biological activity (relative to the wild type): Increased (Increased activity, >120% compared to the activity of wild type nisin A/Z)

## Teicoplanin [2a]
Indicator strains
  Biological activity (relative to the wild type): Increased (Increased activity, >120% compared with the activity of vancomycin)

## K12T (ITSISLCTPGCTTGALMGCNMKTATCHCSIHVSK; cysteine pairing not given here; also: lantibiotic nisin-A; UniProt P13068 24-57, looked up, variant K12T)
[1]; gene nisA (nisin A mutants)
  Biological activity (relative to the wild type): Increased (Increased activity, >120% compared to the activity of wild type nisin A/Z)

## N20V (ITSISLCTPGCKTGALMGCVMKTATCHCSIHVSK; not fully specified; cysteine pairing not given here; also: lantibiotic nisin-A; UniProt P13068 24-57, looked up, variant N20V)
[1]; gene nisZ (nisin Z mutants)
  Biological activity (relative to the wild type): Increased (Increased activity, >120% compared to the activity of wild type nisin A/Z)

## N20P (ITSISLCTPGCKTGALMGCPMKTATCHCSIHVSK; not fully specified; cysteine pairing not given here; also: lantibiotic nisin-A; UniProt P13068 24-57, looked up, variant N20P)
[1]; gene nisA (nisin A mutants)
  Biological activity (relative to the wild type): Increased (Increased activity, >120% compared to the activity of wild type nisin A/Z)

## Chlorobiphenyl Des-methyl vancomycin [Compound 8]
Indicator strains
  Biological activity (relative to the wild type): Increased (Increased activity, >120% compared with the activity of vancomycin)

## K12V (ITSISLCTPGCVTGALMGCNMKTATCHCSIHVSK; cysteine pairing not given here; also: lantibiotic nisin-A; UniProt P13068 24-57, looked up, variant K12V)
[1]; gene nisA (nisin A mutants)
  Biological activity (relative to the wild type): Increased (Increased activity, >120% compared to the activity of wild type nisin A/Z)

## CC[C@@H](C)[C@@H](NC(=O)CN)C(=O)NCC(=O)N[C@H](CCCCN)C(=O)N[C@H](Cc1c[nH]cn1)C(=O)N[C@@H](C(=O)NCC(=O)N[C@H](CCCCN)C(=O)N[C@H](C)C(=O)N[C@H](CC(C)C)C(=O)N[C@H](CCCCN)C(=O)NCC(=O)N[C@H](CC(C)C)C(=O)N[C@H](CCCCN)C(=O)NCC(=O)N[C@H](CC(C)C)C(=O)N[C@H](CC(C)C)C(=O)N[C@H](CCCCN)C(=O)NCC(=O)N[C@H](CC(C)C)C(=O)NCC(=O)N[C@H](CCC(=O)O)C(=O)N[C@H](CS)C(=O)O)C(C)C [GNP-D7] (H-G[dI]G[dK][dH][dV]G[dK][dA][dL][dK]G[dL][dK]G[dL][dL][dK]G[dL]G[dE][dC]-OH; N-terminus and C-terminus assumed)
E. coli LMG15862; D form GNP, E. coli LMG15862, Table 9
  MICb (MIC of GNP alone): 2 µM
E. coli LMG15862; LMG15862
  MIC value: 2 µM (≈ 4.55 µg/mL)
K. pneumoniae LMG20218; D form GNP, K. pneumoniae LMG20218, Table 9
  MICb (MIC of GNP alone): 4 µM
K. pneumoniae LMG20218; LMG20218
  MIC value: 4 µM (≈ 9.11 µg/mL)
P. aeruginosa LMG 6395; D form GNP, P. aeruginosa LMG 6395, Table 9
  MICb (MIC of GNP alone): 4 µM
P. aeruginosa LMG 6395; LMG 6395
  MIC value: 4 µM (≈ 9.11 µg/mL)
A. baumannii LMG01041; D form GNP, A. baumannii LMG01041, Table 9
  MICb (MIC of GNP alone): 2 µM
A. baumannii LMG01041; LMG01041
  MIC value: 2 µM (≈ 4.55 µg/mL)
E. aerogenes LMG 02094; D form GNP, E. aerogenes LMG 02094, Table 9
  MICb (MIC of GNP alone): 4 µM
E. aerogenes LMG 02094; LMG 02094
  MIC value: 4 µM (≈ 9.11 µg/mL)

## RIWVIWRR-NH2 [GNP-5]
E. coli LMG15862; E. coli LMG15862
  MICb (GNP concentration when used alone): 3 µM
K. pneumoniae LMG20218; LMG20218
  MICb (MIC of GNP alone): 6 µM
P. aeruginosa LMG 6395; LMG 6395
  MICb (MIC of GNP alone): 3 µM
A. baumannii LMG01041; LMG01041
  MICb (MIC of GNP alone): 2 µM
E. aerogenes LMG 02094; LMG 02094
  MICb (MIC of GNP alone): 5 µM
Gram-negative pathogens
  Activity ranking amongst all the GNPs: most potent

## CCCCCCCCCCNCCN[C@@]1(C)C[C@H](O[C@H]2[C@H](Oc3c4cc5cc3Oc3ccc(cc3Cl)[C@@H](O)[C@@H](NC(=O)[C@@H](CC(C)C)NC)C(=O)N[C@@H](CC(N)=O)C(=O)N[C@H]5C(=O)N[C@H]3C(=O)N[C@H](C(=O)N[C@H](C(=O)O)c5cc(O)c(CNCP(=O)(O)O)c(O)c5-c5cc3ccc5O)[C@H](O)c3ccc(c(Cl)c3)O4)O[C@H](CO)[C@@H](O)[C@@H]2O)O[C@@H](C)[C@H]1O [Telavancin]
Indicator strains
  Biological activity (relative to the wild type): Increased (Increased activity, >120% compared with the activity of vancomycin)

## GIGKHVGKALKGLKGLLKGLGEC [GNP-7]
E. coli LMG15862; E. coli LMG15862
  MICb (GNP concentration when used alone): 6 µM
K. pneumoniae LMG20218; LMG20218
  MICb (MIC of GNP alone): 12 µM
P. aeruginosa LMG 6395; LMG 6395
  MICb (MIC of GNP alone): 13 µM
A. baumannii LMG01041; LMG01041
  MICb (MIC of GNP alone): 2 µM
E. aerogenes LMG 02094; LMG 02094
  MICb (MIC of GNP alone): 8 µM

## M21V (ITSISLCTPGCKTGALMGCNVKTATCHCSIHVSK; cysteine pairing not given here; also: lantibiotic nisin-A; UniProt P13068 24-57, looked up, variant M21V)
[1]; gene nisA (nisin A mutants)
  Biological activity (relative to the wild type): Increased (Increased activity, >120% compared to the activity of wild type nisin A/Z)

## KRIVQRIKKWLR-NH2 [GNP-9]
E. coli LMG15862; E. coli LMG15862
  MICb (GNP concentration when used alone): 4 µM
K. pneumoniae LMG20218; LMG20218
  MICb (MIC of GNP alone): 64 µM
P. aeruginosa LMG 6395; LMG 6395
  MICb (MIC of GNP alone): 16 µM
A. baumannii LMG01041; LMG01041
  MICb (MIC of GNP alone): 16 µM
E. aerogenes LMG 02094; LMG 02094
  MICb (MIC of GNP alone): >32 µM

From patent US20200368315A1, “ANTIMICROBIAL PEPTIDES AND ADMIXTURES THEREOF SHOWING ANTIMICROBIAL ACTIVITY AGAINST GRAM-NEGATIVE PATHOGENS” (priority 2017, published 2020)
